pIC50: −log10 of the molar value.
Assays:
THP1 cells = experiment: Cell-based TR-FRET cGAMP assay in THP1 cells; design: species or system human; conditions: Table 6, PMA-differentiated THP1 cells, 90-bp dsDNA transfection 24 h
THP1-Dual cells = experiment: Cell-based Lucia luciferase assay in THP1-Dual cells; conditions: Homo sapiens, Table 4, 100-bp dsDNA transfection 24 h, secreted luciferase reporting interferon-induced gene expression
h-cGAS = h-cGAS (Homo sapiens (Human), UniProt Q8N884); experiment: RapidFire mass spectroscopy assay (cGAMP formation); type: biochemical
Human cGAS = Human cGAS (Homo sapiens (Human), UniProt Q8N884); experiment: cGAS enzyme assay using TR-FRET; type: biochemical; conditions: Table 5; human cGAS 5 nmol/L, 90 bp dsDNA 100 nmol/L, TR-FRET cGAMP detection; read-out: hcGAS enzyme assay
[1] = Table 2, full-length h-cGAS 100 nM, dsDNA 25 nM, ATP and GTP 100 μM, 7 h RT
[2] = Table 3, compounds from related application PCT/US2019/016673, same RapidFire assay

Chain of h-cGAS (Q8N884 whole entry): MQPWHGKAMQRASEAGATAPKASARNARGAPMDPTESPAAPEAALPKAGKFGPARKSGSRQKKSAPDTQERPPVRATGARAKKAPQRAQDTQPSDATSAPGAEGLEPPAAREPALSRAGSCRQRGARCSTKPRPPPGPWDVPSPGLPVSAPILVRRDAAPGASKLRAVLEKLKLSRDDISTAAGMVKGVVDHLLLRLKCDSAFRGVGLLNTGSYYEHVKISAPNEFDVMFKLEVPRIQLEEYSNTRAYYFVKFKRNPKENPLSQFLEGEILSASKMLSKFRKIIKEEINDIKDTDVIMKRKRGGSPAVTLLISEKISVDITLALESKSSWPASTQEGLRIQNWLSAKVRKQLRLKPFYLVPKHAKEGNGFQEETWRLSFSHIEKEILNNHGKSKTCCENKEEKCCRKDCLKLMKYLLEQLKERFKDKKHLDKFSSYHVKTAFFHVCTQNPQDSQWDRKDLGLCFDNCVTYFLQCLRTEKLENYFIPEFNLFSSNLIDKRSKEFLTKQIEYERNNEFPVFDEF
Chain of Human cGAS (Q8N884 whole entry): as above

Work on “1-[7,8-Dichloro-10-(1-methyl-1H-pyrazol-3-yl)-3,4-dihydropyrazino[1,2-b]indazol-2(1H)-yl]-2-hydroxyethan-1-one [Example 67]” yielded a pIC50 (THP1 cells) of 6.85.
COc1nc2c3c([nH]c2c(Cl)c1Cl)CCN(C(=O)CO)C3 [Example 1, 1-(3,4-Dichloro-2-methoxy-5,6,7,9-tetrahydro-8H-pyrrolo[3,2-b:4,5-c′]dipyridin-8-yl)-2-hydroxyethan-1-one] was tested, and the pIC50 (THP1-Dual cells) was 4.97, the pIC50 (THP1 cells; Homo sapiens, THP-1) was 5.60 and the pIC50 (h-cGAS; [1]) was 7.21. It also gave a pIC50 (Human cGAS) of 6.72.
With COCC(=O)N1CCc2[nH]c3cc(Cl)ncc3c2C1 [Example 2, 1-(7-Chloro-1,3,4,5-tetrahydro-2H-pyrrolo[3,2-c:4,5-c′]dipyridin-2-yl)-2-methoxyethan-1-one] the pIC50 (h-cGAS; [1]) was 5.62 and the pIC50 (Human cGAS) was < 4.52.
COCC(=O)N1CCn2nc3c(Cl)c(Cl)ccc3c2C1 [Example 3, 1-(7,8-Dichloro-3,4-dihydropyrazino[1,2-b]indazol-2(1H)-yl)-2-methoxyethan-1-one] showed a pIC50 (h-cGAS; [1]) of 5.61.
In the case of O=C(CO)N1CCn2nc3c(Cl)c(Cl)ccc3c2C1 [Example 4, 1-(7,8-Dichloro-3,4-dihydropyrazino[1,2-b]indazol-2(1H)-yl)-2-hydroxyethan-1-one], the pIC50 (h-cGAS; [1]) was 5.84 and the pIC50 (Human cGAS) was 4.68.
In the case of COCC(=O)N1CCc2nn3c(Cl)c(Cl)ccc3c2C1 [Example 5, 1-(7,8-Dichloro-3,4-dihydropyrazolo[1,5-a:4,3-c′]dipyridin-2(1H)-yl)-2-methoxyethan-1-one], the pIC50 (h-cGAS; [1]) was 4.66 and the pIC50 (Human cGAS) was < 4.52.
With O=C(CO)N1CCc2nn3c(Cl)c(Cl)ccc3c2C1 [Example 6, 1-(7,8-Dichloro-3,4-dihydropyrazolo[1,5-a:4,3-c′]dipyridin-2(1H)-yl)-2-hydroxyethan-1-one] the pIC50 (h-cGAS; [1]) was 4.68.
Cn1ccc(-c2nc(Cl)c(Cl)c3[nH]c4c(c23)CN(C(=O)CO)CC4)n1 [Example 25, 1-[6,7-Dichloro-9-(1-methyl-1H-pyrazol-3-yl)-1,3,4,5-tetrahydro-2H-pyrrolo[3,2-c:4,5-c′]dipyridin-2-yl]-2-hydroxyethan-1-one] showed a pIC50 (Human cGAS) of 7.02.
For COCC(=O)N1CCc2[nH]c3c(Cl)c(Cl)nc(-c4ccn(C)n4)c3c2C1 [Example 30, 1-[6,7-Dichloro-9-(1-methyl-1H-pyrazol-3-yl)-1,3,4,5-tetrahydro-2H-pyrrolo[3,2-c:4,5-c′]dipyridin-2-yl]-2-methoxyethan-1-one], the pIC50 (Human cGAS) was 6.68.
For Cn1ccc(-c2nc(Cl)c(Cl)c3c2c2c(n3C)CCN(C(=O)CO)C2)n1 [Example 34, 1-[6,7-Dichloro-5-methyl-9-(1-methyl-1H-pyrazol-3-yl)-1,3,4,5-tetrahydro-2H-pyrrolo[3,2-c:4,5-c′]dipyridin-2-yl]-2-hydroxyethan-1-one], the pIC50 (Human cGAS) was 6.82.
Work on Cn1ccc(-c2cc(Cl)c(F)c3nn4c(c23)CN(C(=O)CO)CC4)n1 [Example 64, 1-[8-Chloro-7-fluoro-10-(1-methyl-1H-pyrazol-3-yl)-3,4-dihydropyrazino[1,2-b]indazol-2(1H)-yl]-2-hydroxyethan-1-one] yielded a pIC50 (Human cGAS) of 6.74.
Work on COCC(=O)N1CCn2nc3c(Cl)c(Cl)cc(-c4ccn(C)n4)c3c2C1 [Example 68, 1-[7,8-Dichloro-10-(1-methyl-1H-pyrazol-3-yl)-3,4-dihydropyrazino[1,2-b]indazol-2(1H)-yl]-2-methoxyethan-1-one] yielded a pIC50 (THP1 cells; Homo sapiens, THP-1) of 6.48 and a pIC50 (Human cGAS) of 6.62.
For Cn1ccc(-c2ccc(Cl)c3nn4c(c23)CN(C(=O)CO)CC4)n1 [Example 69, 1-[7-Chloro-10-(1-methyl-1H-pyrazol-3-yl)-3,4-dihydropyrazino[1,2-b]indazol-2(1H)-yl]-2-hydroxyethan-1-one], the pIC50 (Human cGAS) was 6.55.
Cc1nnc(-c2cc(Cl)c(F)c3nn4c(c23)CN(C(=O)CO)CC4)o1 [Example 70, 1-[8-Chloro-7-fluoro-10-(5-methyl-1,3,4-oxadiazol-2-yl)-3,4-dihydropyrazino[1,2-b]indazol-2(1H)-yl]-2-hydroxyethan-1-one] was tested, and the pIC50 (Human cGAS) was 5.12.
Cc1noc(-c2cc(Cl)c(F)c3nn4c(c23)CN(C(=O)CO)CC4)n1 [Example 71, 1-[8-Chloro-7-fluoro-10-(3-methyl-1,2,4-oxadiazol-5-yl)-3,4-dihydropyrazino[1,2-b]indazol-2(1H)-yl]-2-hydroxyethan-1-one] was tested, and the pIC50 (Human cGAS) was 5.85.
With Cn1ccc(-c2ncc(Cl)c3[nH]c4c(c23)CN(C(=O)CO)CC4)n1 [Example 72, 1-[6-Chloro-9-(1-methyl-1H-pyrazol-3-yl)-1,3,4,5-tetrahydro-2H-pyrrolo[3,2-c:4,5-c′]dipyridin-2-yl]-2-hydroxyethan-1-one] the pIC50 (Human cGAS) was 6.60.
COCC(=O)N1CCc2[nH]c3c(Cl)cnc(-c4ccn(C)n4)c3c2C1 [Example 73, 1-[6-Chloro-9-(1-methyl-1H-pyrazol-3-yl)-1,3,4,5-tetrahydro-2H-pyrrolo[3,2-c:4,5-c′]dipyridin-2-yl]-2-methoxyethan-1-one] showed a pIC50 (Human cGAS) of 6.06.
Cn1ccc(-c2ncc(Cl)c3c2c2c(n3C)CCN(C(=O)CO)C2)n1 [Example 74, 1-[6-Chloro-5-methyl-9-(1-methyl-1H-pyrazol-3-yl)-1,3,4,5-tetrahydro-2H-pyrrolo[3,2-c:4,5-c′]dipyridin-2-yl]-2-hydroxyethan-1-one] was tested, and the pIC50 (Human cGAS) was 6.54.
In the case of COc1nc2c3c([nH]c2c(F)c1Cl)CCN(C(=O)CO)C3 [Example 75, 1-(3-Chloro-4-fluoro-2-methoxy-5,6,7,9-tetrahydro-8H-pyrrolo[3,2-b:4,5-c′]dipyridin-8-yl)-2-hydroxyethan-1-one], the pIC50 (Human cGAS) was 6.26.
For COc1nc2c3c([nH]c2c(Cl)c1Cl)C(C)(C)CN(C(=O)CO)C3 [Example 76, 1-(3,4-Dichloro-2-methoxy-6,6-dimethyl-5,6,7,9-tetrahydro-8H-pyrrolo[3,2-b:4,5-c′]dipyridin-8-yl)-2-hydroxyethan-1-one], the pIC50 (Human cGAS) was 6.07.
CCOc1nc2c3c([nH]c2c(Cl)c1Cl)CCN(C(=O)CO)C3 [Example 77, 1-(3,4-Dichloro-2-ethoxy-5,6,7,9-tetrahydro-8H-pyrrolo[3,2-b:4,5-c′]dipyridin-8-yl)-2-hydroxyethan-1-one] was tested, and the pIC50 (Human cGAS) was 5.52.
CCOc1nc2c3c([nH]c2c(F)c1Cl)CCN(C(=O)CO)C3 [Example 78, 1-(3-Chloro-2-ethoxy-4-fluoro-5,6,7,9-tetrahydro-8H-pyrrolo[3,2-b:4,5-c′]dipyridin-8-yl)-2-hydroxyethan-1-one] showed a pIC50 (Human cGAS) of 5.43.
O=C(CO)N1CCc2[nH]c3c(Cl)c(Cl)c(OCC4CC4)nc3c2C1 [Example 79, 1-[3,4-Dichloro-2-(cyclopropylmethoxy)-5,6,7,9-tetrahydro-8H-pyrrolo[3,2-b:4,5-c′]dipyridin-8-yl]-2-hydroxyethan-1-one] gave a pIC50 (Human cGAS) of 5.23.
O=C(CO)N1CCc2[nH]c3c(F)c(Cl)c(OCC4CC4)nc3c2C1 [Example 80, 1-[3-Chloro-2-(cyclopropylmethoxy)-4-fluoro-5,6,7,9-tetrahydro-8H-pyrrolo[3,2-b:4,5-c′]dipyridin-8-yl]-2-hydroxyethan-1-one] showed a pIC50 (Human cGAS) of 5.30.
Molecule O=C(CO)N1CCc2[nH]c3c(Cl)c(Cl)c(OC(F)F)nc3c2C1 [Example 81, 1-[3,4-Dichloro-2-(difluoromethoxy)-5,6,7,9-tetrahydro-8H-pyrrolo[3,2-b:4,5-c′]dipyridin-8-yl]-2-hydroxyethan-1-one] has a pIC50 (Human cGAS) of 5.62.
For O=C(CO)N1CCc2[nH]c3c(F)c(Cl)c(OC(F)F)nc3c2C1 [Example 82, 1-[3-Chloro-2-(difluoromethoxy)-4-fluoro-5,6,7,9-tetrahydro-8H-pyrrolo[3,2-b:4,5-c′]dipyridin-8-yl]-2-hydroxyethan-1-one], the pIC50 (Human cGAS) was 4.82.
N#Cc1ccc2c3c([nH]c2c1C#N)CCN(C(=O)CO)C3 [TDI-006932, reference compound] was tested, and the pIC50 (h-cGAS; [2]) was < 4.60.
With O=C(CO)N1CCc2[nH]c3c(Cl)c(Cl)cc(-c4cn[nH]c4)c3c2C1 [TDI-007445, reference compound] the pIC50 (h-cGAS; [2]) was 7.56.
With O=C(CO)N1CCc2[nH]c3c(Cl)c(Cl)cc(-c4ccc(NC(=O)C(F)(F)F)cc4)c3c2C1 [TDI-008458, reference compound] the pIC50 (h-cGAS; [2]) was 6.20.
In the case of O=C(CO)N1CCc2[nH]c3c(F)c(Cl)cc(N4CCS(=O)(=O)C4)c3c2C1 [TDI-008867, reference compound], the pIC50 (THP1-Dual cells) was < 5.00 and the pIC50 (h-cGAS; [2]) was 5.16.
Molecule Cc1cc(-c2ncn(C)n2)c2c3c([nH]c2c1Cl)CCN(C(=O)CO)C3 [TDI-008989, reference compound] has a pIC50 (THP1-Dual cells) of 5.17 and a pIC50 (h-cGAS; [2]) of 7.34.

From patent US12522603B2, “Inhibitors of gas for treating autoinflammatory diseases and cancer metastasis” (The Rockefeller University, priority 2019, dated 2026)
